One series addresses Cannabinoid receptor 1 (Homo sapiens, UniProt P21554). Description: Inverse agonist activity at human CB1 receptor transfected in HEK293 cells assessed as increase of forskolin-induced cAMP production incubated for 30 mins followed by d2 labeled cAMP addition measured after 60 mins by HTRF assay. It counts as functional, cell-based. (In general: cAMP levels reflect the balance of adenylyl cyclase and phosphodiesterase activity.)

In another series the target is Cannabinoid receptor 2 (Homo sapiens, UniProt P34972). Description: Inverse agonist activity at human CB2 receptor transfected in HEK293 cells assessed as increase of forskolin-induced cAMP production incubated for 30 mins followed by d2 labeled cAMP addition measured after 60 mins by HTRF assay. It counts as functional, cell-based.
Cannabinoid receptor 2, sequence (P34972 whole entry): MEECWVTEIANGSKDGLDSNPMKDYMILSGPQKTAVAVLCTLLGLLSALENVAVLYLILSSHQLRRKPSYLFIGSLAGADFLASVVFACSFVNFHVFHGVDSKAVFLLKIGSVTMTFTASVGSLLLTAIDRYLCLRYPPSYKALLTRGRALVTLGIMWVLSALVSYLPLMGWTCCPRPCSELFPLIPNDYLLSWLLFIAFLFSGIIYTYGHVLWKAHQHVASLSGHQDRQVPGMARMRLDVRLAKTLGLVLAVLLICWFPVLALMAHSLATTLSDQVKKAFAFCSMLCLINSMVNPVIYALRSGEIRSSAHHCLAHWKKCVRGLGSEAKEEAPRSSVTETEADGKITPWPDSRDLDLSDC
A short description of series [1]: Plasma concentration in C57BL/6J mouse at 20 mg/kg, po measured at 2 hrs. It counts as ADME, organism-based.
Series [2] in a line: Drug uptake in C57BL/6J mouse brain at 20 mg/kg, po measured at 2 hrs. Conditions: for concentration at 2 h: C57BL/6J, brain, read-out: Drug uptake; for Drug uptake: in vivo, 2 h. It counts as ADME, organism-based.
Series [3] is described as follows: Plasma concentration in C57BL/6J mouse at 20 mg/kg, po measured at 4 hrs. It is filed as ADME, organism-based.
The nature of series [4]: Drug uptake in C57BL/6J mouse brain at 20 mg/kg, po measured at 4 hrs. It counts as ADME, organism-based. Conditions: for Drug uptake: in vivo, 4 h.
Series [5] can be described thus: Ratio of drug level in brain to plasma in C57BL/6J mouse at 20 mg/kg, po measured at 4 hrs. It is filed as ADME, organism-based. Conditions: read-out: BPR.
Series [6] is described as follows: Ratio of drug level in brain to plasma in C57BL/6J mouse at 20 mg/kg, po measured at 2 hrs. It counts as ADME, organism-based. Conditions: read-out: BPR.
The nature of series [7]: Plasma concentration in C57BL/6J mouse at 30 mg/kg, po measured at 4 hrs. It counts as ADME, organism-based.
Series [8] is described as follows: Drug uptake in C57BL/6J mouse brain at 30 mg/kg, po measured at 4 hrs. It is filed as ADME, organism-based. Conditions: read-out: Drug uptake.
Series [9] is described as follows: Ratio of drug level in brain in C57BL/6J mouse at 20 mg/kg, po measured at 4 hrs to drug level in plasma in C57BL/6J mouse at 20 mg/kg, po measured at 2 hrs. It is filed as ADME, organism-based. Conditions: read-out: BPR.

The text below walks through data of ChEMBL document CHEMBL3862001, “Tetrahydropyrazolo[4,3-c]pyridine derivatives as potent and peripherally selective cannabinoid-1 (CB1) receptor inverse agonists” (Bioorg Med Chem Lett, 2016).

Cannabinoid receptor 1, sequence (P21554 whole entry): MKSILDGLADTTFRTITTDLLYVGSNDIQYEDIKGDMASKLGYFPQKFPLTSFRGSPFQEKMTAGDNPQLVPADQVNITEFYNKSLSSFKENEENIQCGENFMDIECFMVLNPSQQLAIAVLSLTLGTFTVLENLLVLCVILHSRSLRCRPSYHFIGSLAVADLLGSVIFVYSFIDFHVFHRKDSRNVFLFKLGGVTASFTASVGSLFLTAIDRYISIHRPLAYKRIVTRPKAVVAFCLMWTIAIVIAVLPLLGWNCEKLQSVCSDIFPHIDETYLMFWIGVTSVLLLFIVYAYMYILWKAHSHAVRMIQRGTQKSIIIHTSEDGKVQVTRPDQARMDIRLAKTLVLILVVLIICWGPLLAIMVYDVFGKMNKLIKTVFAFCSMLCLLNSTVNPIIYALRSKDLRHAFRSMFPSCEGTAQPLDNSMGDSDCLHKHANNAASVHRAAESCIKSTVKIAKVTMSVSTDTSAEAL

With `COc1ccc(/C=C2\CN(C(=O)Cn3ccnn3)Cc3c(C(=O)N[C@H](C)c4ccccc4)nn(-c4ccc(Cl)cc4Cl)c32)cc1`, the EC50 on Cannabinoid receptor 1 came out at 0.004 µM; on Cannabinoid receptor 2 it was 1.27 µM. The values for the concentration at 2 h in series [1] and in series [2] were 30 nM and less than 5 ng/mL, respectively.
Consider `C[C@@H](NC(=O)c1nn(-c2ccc(Cl)cc2Cl)c2c1CN(C(=O)[C@@H](O)CO)C/C2=C\c1ccc(Cl)cc1)c1ccccc1`, for which the EC50 stood at 0.018 µM on Cannabinoid receptor 1 and 2.91 µM at Cannabinoid receptor 2. In addition, the concentration at 4 h in [3] came to 2770 nM. The molecule further returned a Drug uptake in [4] of 0.17 nmol/g. Also, the Kp at 4 h in series [5] came to 0.06.
With `COc1ccc(/C=C2\CN(C(=O)Cn3cnnn3)Cc3c(C(=O)N[C@H](C)c4ccccc4)nn(-c4ccc(Cl)cc4Cl)c32)cc1`, the results for the EC50 on Cannabinoid receptor 1 and at Cannabinoid receptor 2 were 0.006 µM and 1.13 µM, respectively. This molecule showed a concentration at 2 h in series [1] of 2960 nM. In series [2], this molecule displayed a Drug uptake of 0.07 nmol/g. Further, the Kp at 2 h in [6] was found to be 0.02.
For `COc1ccc(/C=C2\CN(C(=O)CN)Cc3c(C(=O)N[C@H](C)c4ccccc4)nn(-c4ccc(Cl)cc4Cl)c32)cc1`, the EC50 at Cannabinoid receptor 1 was 0.024 µM; at Cannabinoid receptor 2 it was greater than 10 µM. This molecule also came in with a concentration at 4 h in [3] of 1530 nM. Besides, the Drug uptake in [4] came to 0.07 nmol/g. In addition, the Kp at 4 h in series [5] was 0.04.
With `COc1ccc(/C=C2\CN(C(=O)c3nc[nH]n3)Cc3c(C(=O)N[C@H](C)c4ccccc4)nn(-c4ccc(Cl)cc4Cl)c32)cc1`, the results for the EC50 at Cannabinoid receptor 1 and at Cannabinoid receptor 2 were 0.015 µM and 1.76 µM, respectively. In [1], this molecule had a concentration at 2 h of 1480 nM. The same molecule returned a Drug uptake in series [2] of 0.05 nmol/g. Moreover, the Kp at 2 h in series [6] worked out at 0.03.
For the molecule `COc1ccc(/C=C2\CN(C(=O)CCS(N)(=O)=O)Cc3c(C(=O)N[C@H](C)c4ccccn4)nn(-c4ccc(Cl)cc4Cl)c32)cc1`, the results for the EC50 on Cannabinoid receptor 1 and on Cannabinoid receptor 2 were 0.006 µM and 0.65 µM, respectively. This molecule also gave a concentration at 4 h in series [3] of 1360 nM. In series [4], this molecule had a Drug uptake of 0.05 nmol/g. Also, the Kp at 4 h in series [5] was determined as 0.04.
With `C[C@@H](NC(=O)c1nn(-c2ccc(Cl)cc2Cl)c2c1CN(C(=O)CC(N)=O)C/C2=C\c1ccc(F)cc1)c1ccccn1`, the figures for the EC50 on Cannabinoid receptor 1 and on Cannabinoid receptor 2 were 0.009 µM and greater than 10 µM, respectively. Moreover, the concentration at 4 h in [7] is 2290 nM; in series [8], less than 5 ng/mL.
Take `C[C@@H](NC(=O)c1nn(-c2ccc(Cl)cc2Cl)c2c1CN(C(=O)CCC(N)=O)C/C2=C\c1ccc(F)cc1)c1ccccn1`: the EC50 at Cannabinoid receptor 1 was 0.02 µM; on Cannabinoid receptor 2, greater than 10 µM. Also, the concentration at 4 h in [3] worked out at 4250 nM. In series [4], this molecule displayed a Drug uptake of 0.12 nmol/g. For the same molecule, the Kp at 4 h in [5] came to 0.03.
On the same counts, the results for `C[C@@H](NC(=O)c1nn(-c2ccc(Cl)c(Cl)c2)c2c1CN(C(=O)Cn1cncn1)C/C2=C\c1ccc(Cl)cc1)c1ccccn1` are 0.006 µM, 7.85 µM, 4600 nM, 0.35 nmol/g and 0.08.
For `COc1ccc(/C=C2\CN(C(=O)CC(=O)O)Cc3c(C(=O)N[C@H](C)c4ccccn4)nn(-c4ccc(Cl)cc4Cl)c32)cc1`, the results for the EC50 on Cannabinoid receptor 1 and at Cannabinoid receptor 2 were 0.011 µM and 1.94 µM, respectively. Also, the concentration at 4 h in series [3] was 90 nM; in series [4] (C57BL/6J, brain, read-out: Drug uptake), less than 5 ng/mL.
`COc1ccc(/C=C2\CN(C(=O)c3cc[nH]n3)Cc3c(C(=O)N[C@H](C)c4ccccc4)nn(-c4ccc(Cl)cc4Cl)c32)cc1`: the EC50 on Cannabinoid receptor 1 was 0.032 µM; at Cannabinoid receptor 2, 4.66 µM. Moreover, the concentration at 2 h in series [1] was 1720 nM; in series [2], less than 5 ng/mL.
For the molecule `COc1ccc(/C=C2\CN(C(=O)Cn3ccnc3)Cc3c(C(=O)N[C@H](C)c4ccccc4)nn(-c4ccc(Cl)cc4Cl)c32)cc1`, the figures for the EC50 at Cannabinoid receptor 1 and at Cannabinoid receptor 2 were 0.005 µM and 0.37 µM, respectively. In addition, the values for the concentration at 2 h in series [1] and in series [2] were 580 nM and less than 5 ng/mL, respectively.
As to `C[C@@H](NC(=O)c1nn(-c2ccc(Cl)cc2)c2c1CN(C(=O)c1nc[nH]n1)C/C2=C\c1ccc(Cl)cc1)c1ccccn1`, the EC50 is 0.028 µM at Cannabinoid receptor 1 and greater than 10 µM at Cannabinoid receptor 2. In series [1], this molecule showed a concentration at 2 h of 2380 nM. The molecule further registered a Drug uptake in series [2] of 0.1 nmol/g. Besides, the Kp at 2 h in series [6] was 0.04.
For the molecule `C[C@@H](NC(=O)c1nn(-c2ccc(Cl)cc2Cl)c2c1CN(C(=O)Cn1cnnn1)C/C2=C\c1ccc(F)cc1)c1ccccn1`, the EC50 at Cannabinoid receptor 1 is 0.006 µM; at Cannabinoid receptor 2 it was 8.61 µM. Moreover, the concentration at 4 h in series [3] is 2280 nM. In addition, the Drug uptake in series [4] was found to be 0.07 nmol/g. The Kp at 4 h in [5] was 0.03.
In the same order, the values of `COc1ccc(/C=C2\CN(C(=O)CS(N)(=O)=O)Cc3c(C(=O)N[C@H](C)c4ccccn4)nn(-c4ccc(Cl)cc4Cl)c32)cc1` are 0.008 µM, 1.45 µM, 2090 nM, 0.08 nmol/g and 0.04.
On the same counts, the results for `C[C@@H](NC(=O)c1nn(-c2ccc(Cl)cc2)c2c1CN(C(=O)CNS(C)(=O)=O)C/C2=C\c1ccc(F)cc1)c1ccccn1` are 0.03 µM, greater than 10 µM, 1720 nM, 0.09 nmol/g and 0.05.
On to `C[C@@H](NC(=O)c1nn(-c2ccc(Cl)cc2)c2c1CN(C(=O)c1nc[nH]n1)C/C2=C\c1ccc(Cl)cc1)c1ccccc1`, for which the EC50 was 0.017 µM at Cannabinoid receptor 1 and greater than 10 µM at Cannabinoid receptor 2. This molecule returned a concentration at 2 h in series [1] of 9780 nM. In addition, the Drug uptake in series [2] is listed as 0.47 nmol/g. In series [6], the Kp at 2 h stood at 0.05.
On the same counts, the results for `C[C@@H](NC(=O)c1nn(-c2ccc(Cl)cc2Cl)c2c1CN(C(=O)c1nc[nH]n1)C/C2=C\c1ccc(F)cc1)c1ccccc1` are 0.015 µM, 1.31 µM, 4480 nM, 0.25 nmol/g and 0.06.
Consider `C[C@@H](NC(=O)c1nn(-c2ccc(Cl)cc2Cl)c2c1CN(C(=O)CNS(C)(=O)=O)C/C2=C\c1ccc(Cl)cc1)c1ccccn1`, for which the EC50 at Cannabinoid receptor 1 was 0.017 µM; at Cannabinoid receptor 2 it was greater than 10 µM. In [3], this molecule gave a concentration at 4 h of 3320 nM. In addition, the Drug uptake in [4] was determined as 0.17 nmol/g. In addition, the Kp at 4 h in [5] was determined as 0.05.
On the same counts, the results for `C[C@@H](NC(=O)c1nn(-c2ccc(Cl)cc2Cl)c2c1CN(C(=O)[C@@H](O)CO)C/C2=C\c1ccc(Cl)cc1)c1ccccn1` are 0.022 µM, 5.55 µM, 2410 nM, 0.18 nmol/g and 0.08.
On to `C[C@@H](NC(=O)c1nn(-c2ccc(Cl)c(Cl)c2)c2c1CN(C(=O)Cn1cnnn1)C/C2=C\c1ccc(F)cc1)c1ccccn1`, for which the EC50 worked out at 0.007 µM at Cannabinoid receptor 1 and 3.66 µM at Cannabinoid receptor 2. Moreover, the concentration at 4 h in series [3] is 2820 nM. In addition, in series [4], the Drug uptake is recorded as 0.15 nmol/g. Also, the Kp at 4 h in [5] turned out to be 0.05.
In the case of `C[C@@H](NC(=O)c1nn(-c2ccc(Cl)cc2Cl)c2c1CN(C(=O)Cn1cnnn1)C/C2=C\c1ccc(F)cc1)c1ccccc1`, the EC50 at Cannabinoid receptor 1 was 0.008 µM; at Cannabinoid receptor 2, 3.24 µM. The concentration at 2 h in series [1] stood at 9190 nM. In addition, in series [4], the Drug uptake is 0.43 nmol/g. Also, the Kp in series [9] is 0.05.
`C[C@@H](NC(=O)c1nn(-c2ccc(Cl)cc2)c2c1CN(C(=O)c1nc[nH]n1)C/C2=C\c1ccc(F)cc1)c1ccccc1`: the values for the EC50 at Cannabinoid receptor 1 and at Cannabinoid receptor 2 were 0.012 µM and greater than 10 µM, respectively. The same molecule returned a concentration at 2 h in [1] of 1320 nM. This molecule registered a Drug uptake in [2] of 0.09 nmol/g. The Kp at 2 h in series [6] was 0.07.

As usually defined, the EC50 is the concentration needed to bring the measured effect to its halfway point.
